Data published in US5840684A, “Glycopeptide antibiotic derivatives” (Eli Lilly and Company, priority 1995, dated 1998).
In brackets after ≈: the same amount, converted by molar mass.

What was measured:
[1] = test system: Staphylococcus aureus S13E; assay type: cell-based
Method: (§1) The MIC's were determined using a standard broth micro-dilution assay.

[2] = test system: Staphylococcus aureus SA1199B; assay type: cell-based
Method: as §1

[3] = test system: Entercoccus faecium 180-1; assay: broth micro-dilution MIC; assay type: cell-based
Method: as §1

[4] = test system: Staphylococcus aureus SA1199A; assay: broth micro-dilution MIC; assay type: cell-based
Method: as §1

[5] = test system: Staphylococcus aureus SA1199; assay: broth micro-dilution MIC; assay type: cell-based
Method: as §1

[6] = test system: Streptococcus pyogenes C203; assay: broth micro-dilution MIC; assay type: cell-based
Method: as §1

Entercoccus faecium 180 = assay: broth micro-dilution MIC; assay type: cell-based; settings: Entercoccus faecium 180
Method: (§2) The formula I compounds have in vitro and in vivo activity against Gram-positive pathogenic bacteria. The MIC's were determined using a standard broth micro-dilution assay.

Entercoccus faecium 2041 = assay: broth micro-dilution MIC; assay type: cell-based; settings: Entercoccus faecium 2041
Method: as §2

[7] = test system: Enterococcus gallinarum 245; assay: broth micro-dilution MIC; assay type: cell-based; settings: Enterococcus gallinarum 245
Method: as §2

[8] = test system: Staphylococcus epidermidis 270; assay: broth micro-dilution MIC; assay type: cell-based
Method: as §2

[9] = test system: Staphylococcus haemolyticus 105; assay: broth micro-dilution MIC; assay type: cell-based
Method: as §2

[10] = test system: Staphylococcus haemolyticus 415; assay: broth micro-dilution MIC; assay type: cell-based
Method: as §2

[11] = test system: Streptococcus pneumoniae P1; assay: broth micro-dilution MIC; assay type: cell-based
Method: as §2

[12] = test system: vancomycin-resistant enterococci; assay: broth micro-dilution, mean geometric MIC; assay type: cell-based, Enterococcus faecium and Enterococcus faecalis; settings: enterococci, 24-hour incubation
[13] = test system: vancomycin-susceptible enterococci; assay: broth micro-dilution, mean geometric MIC; assay type: cell-based, Enterococcus faecium and Enterococcus faecalis; settings: enterococci, 24-hour incubation
Entercoccus faecium 276 = assay: broth micro-dilution MIC; assay type: cell-based
Method: as §1

[14] = test system: Staphylococcus aureus 446; assay: broth micro-dilution MIC; assay type: cell-based
Method: as §1

[15] = test system: Staphylococcus aureus 447; assay: broth micro-dilution MIC; assay type: cell-based
Method: as §1

[16] = test system: Staphylococcus aureus X400; assay: broth micro-dilution MIC; assay type: cell-based
Method: as §1

[17] = test system: Staphylococcus aureus X778; assay: broth micro-dilution MIC; assay type: cell-based
Method: as §1

[18] = test system: Staphylococcus aureus 489; assay: broth micro-dilution MIC; assay type: cell-based
Method: as §1

Row | SMILES | MIC [1] | MIC [2] | MIC [3] | MIC [4] | MIC [5] | MIC [6] | MIC (Entercoccus faecium 180) | MIC (Entercoccus faecium 2041) | MIC [7] | MIC [8] | MIC [9] | MIC [10] | MIC [11] | mean geometric MIC, Vancomycin Resistant Strains [12] | mean geometric MIC, Vancomycin Sensitive Strains [13] | MIC (Entercoccus faecium 276) | MIC [14] | MIC [15] | MIC [16] | MIC [17] | further results
1 | CNC(CC(C)C)C(=O)NC1C(=O)NC(CC(N)=O)C(=O)NC2C(=O)NC3C(=O)NC(C(=O)NC(C(=O)O)c4cc(O)cc(O)c4-c4cc3ccc4O)C(OC3CC(C)(N)C(O)C(C)O3)c3ccc(c(Cl)c3)Oc3cc2cc(c3OC2OC(CO)C(O)C(O)C2OC2CC(C)(NCc3cc(-c4ccccc4)ccc3O)C(O)C(C)O2)Oc2ccc(cc2Cl)C1O (stereo not shown) [Compound 85] | 0.5 µg/mL (≈ 0.282 µM) | 1 µg/mL (≈ 0.563 µM) | ≤ 0.06 µg/mL | ≤ 0.06 µg/mL | 0.5 µg/mL (≈ 0.282 µM) | ≤ 0.06 µg/mL | ≤ 0.06 µg/mL | ≤ 0.06 µg/mL | 2 µg/mL (≈ 1.13 µM) | 0.5 µg/mL (≈ 0.282 µM) | 1 µg/mL (≈ 0.563 µM) | 2 µg/mL (≈ 1.13 µM) | ≤ 0.06 µg/mL | 3.4 µg/mL | 0.11 µg/mL |  |  |  |  |  | 
2 | CNC(CC(C)C)C(=O)NC1C(=O)NC(CC(N)=O)C(=O)NC2C(=O)NC3C(=O)NC(C(=O)NC(C(=O)O)c4cc(O)cc(O)c4-c4cc3ccc4O)C(OC3CC(C)(N)C(O)C(C)O3)c3ccc(c(Cl)c3)Oc3cc2cc(c3OC2OC(CO)C(O)C(O)C2OC2CC(C)(NCc3ccc(N4CCCCC4C)cc3)C(O)C(C)O2)Oc2ccc(cc2Cl)C1O (stereo not shown) [Compound 135] | 1 µg/mL (≈ 0.562 µM) |  | ≤ 0.06 µg/mL | ≤ 0.06 µg/mL | 1 µg/mL (≈ 0.562 µM) | ≤ 0.06 µg/mL | 1 µg/mL (≈ 0.562 µM) |  | 2 µg/mL (≈ 1.12 µM) | 0.5 µg/mL (≈ 0.281 µM) | 0.5 µg/mL (≈ 0.281 µM) | 2 µg/mL (≈ 1.12 µM) | ≤ 0.06 µg/mL | 4.8 µg/mL | 0.22 µg/mL | 0.5 µg/mL (≈ 0.281 µM) | 1 µg/mL (≈ 0.562 µM) | 1 µg/mL (≈ 0.562 µM) | ≤ 0.06 µg/mL | 1 µg/mL (≈ 0.562 µM) | 
3 | CCOc1ccc2ccccc2c1CNC1(C)CC(OC2C(Oc3c4cc5cc3Oc3ccc(cc3Cl)C(OC3CC(C)(N)C(O)C(C)O3)C3NC(=O)C(NC(=O)C5NC(=O)C(CC(N)=O)NC(=O)C(NC(=O)C(CC(C)C)NC)C(O)c5ccc(c(Cl)c5)O4)c4ccc(O)c(c4)-c4c(O)cc(O)cc4C(C(=O)O)NC3=O)OC(CO)C(O)C2O)OC(C)C1O (stereo not shown) [Compound 60] |  | 0.5 µg/mL (≈ 0.281 µM) | ≤ 0.06 µg/mL | ≤ 0.06 µg/mL |  |  | 4 µg/mL (≈ 2.25 µM) |  | 16 µg/mL (≈ 9.01 µM) | 2 µg/mL (≈ 1.13 µM) |  | 16 µg/mL (≈ 9.01 µM) | ≤ 0.06 µg/mL | 19 µg/mL | 3.0 µg/mL | 0.5 µg/mL (≈ 0.281 µM) | 1 µg/mL (≈ 0.563 µM) | 2 µg/mL (≈ 1.13 µM) | 0.5 µg/mL (≈ 0.281 µM) |  | MIC [18]: 0.5 µg/mL (≈ 0.281 µM)
4 | CNC(CC(C)C)C(=O)NC1C(=O)NC(CC(N)=O)C(=O)NC2C(=O)NC3C(=O)NC(C(=O)NC(C(=O)O)c4cc(O)cc(O)c4-c4cc3ccc4O)C(OC3CC(C)(N)C(O)C(C)O3)c3ccc(c(Cl)c3)Oc3cc2cc(c3OC2OC(CO)C(O)C(O)C2OC2CC(C)(NCCc3ccc(OCc4ccccc4)cc3)C(O)C(C)O2)Oc2ccc(cc2Cl)C1O (stereo not shown) [Compound 68] | ≤ 0.06 µg/mL | 0.5 µg/mL (≈ 0.277 µM) | ≤ 0.06 µg/mL | ≤ 0.06 µg/mL | ≤ 0.06 µg/mL |  | 2 µg/mL (≈ 1.11 µM) | ≤ 0.06 µg/mL | 4 µg/mL (≈ 2.22 µM) | 2 µg/mL (≈ 1.11 µM) | 2 µg/mL (≈ 1.11 µM) | 4 µg/mL (≈ 2.22 µM) |  | 6.7 µg/mL |  | ≤ 0.06 µg/mL |  |  | ≤ 0.06 µg/mL | ≤ 0.06 µg/mL | 
5 | CNC(CC(C)C)C(=O)NC1C(=O)NC(CC(N)=O)C(=O)NC2C(=O)NC3C(=O)NC(C(=O)NC(C(=O)O)c4cc(O)cc(O)c4-c4cc3ccc4O)C(OC3CC(C)(N)C(O)C(C)O3)c3ccc(c(Cl)c3)Oc3cc2cc(c3OC2OC(CO)C(O)C(O)C2OC2CC(C)(NCc3cccc(OC(=O)c4ccccc4)c3)C(O)C(C)O2)Oc2ccc(cc2Cl)C1O (stereo not shown) [Compound 162] | ≤ 0.06 µg/mL | ≤ 0.06 µg/mL | ≤ 0.06 µg/mL | ≤ 0.06 µg/mL | ≤ 0.06 µg/mL | ≤ 0.06 µg/mL | ≤ 0.06 µg/mL | ≤ 0.06 µg/mL | 2 µg/mL (≈ 1.11 µM) | ≤ 0.06 µg/mL |  | 2 µg/mL (≈ 1.11 µM) | ≤ 0.06 µg/mL | 4.8 µg/mL | 0.12 µg/mL | ≤ 0.06 µg/mL | 0.5 µg/mL (≈ 0.277 µM) | ≤ 0.06 µg/mL | ≤ 0.06 µg/mL | ≤ 0.06 µg/mL | 
6 | CNC(CC(C)C)C(=O)NC1C(=O)NC(CC(N)=O)C(=O)NC2C(=O)NC3C(=O)NC(C(=O)NC(C(=O)O)c4cc(O)cc(O)c4-c4cc3ccc4O)C(OC3CC(C)(N)C(O)C(C)O3)c3ccc(c(Cl)c3)Oc3cc2cc(c3OC2OC(CO)C(O)C(O)C2OC2CC(C)(NCc3ccc4cc(OC)ccc4c3)C(O)C(C)O2)Oc2ccc(cc2Cl)C1O (stereo not shown) [Compound 65] | 0.5 µg/mL (≈ 0.284 µM) | 2 µg/mL (≈ 1.13 µM) | ≤ 0.06 µg/mL | ≤ 0.06 µg/mL | 0.5 µg/mL (≈ 0.284 µM) |  | 0.5 µg/mL (≈ 0.284 µM) | ≤ 0.06 µg/mL | 4 µg/mL (≈ 2.27 µM) | 1 µg/mL (≈ 0.567 µM) |  | 4 µg/mL (≈ 2.27 µM) | ≤ 0.06 µg/mL | 2.4 µg/mL | 0.20 µg/mL | 0.5 µg/mL (≈ 0.284 µM) | 2 µg/mL (≈ 1.13 µM) | 1 µg/mL (≈ 0.567 µM) |  | 0.5 µg/mL (≈ 0.284 µM) | 
7 | CNC(CC(C)C)C(=O)NC1C(=O)NC(CC(N)=O)C(=O)NC2C(=O)NC3C(=O)NC(C(=O)NC(C(=O)O)c4cc(O)cc(O)c4-c4cc3ccc4O)C(OC3CC(C)(N)C(O)C(C)O3)c3ccc(c(Cl)c3)Oc3cc2cc(c3OC2OC(CO)C(O)C(O)C2OC2CC(C)(NCCc3ccc(Oc4ccccc4)cc3)C(O)C(C)O2)Oc2ccc(cc2Cl)C1O (stereo not shown) [Compound 63] |  | 0.5 µg/mL (≈ 0.28 µM) | ≤ 0.06 µg/mL |  |  | ≤ 0.06 µg/mL |  |  | 8 µg/mL (≈ 4.47 µM) | 1 µg/mL (≈ 0.559 µM) | 4 µg/mL (≈ 2.24 µM) | 8 µg/mL (≈ 4.47 µM) | ≤ 0.06 µg/mL | 54 µg/mL | 0.66 µg/mL | 0.5 µg/mL (≈ 0.28 µM) | 0.5 µg/mL (≈ 0.28 µM) | 1 µg/mL (≈ 0.559 µM) | ≤ 0.06 µg/mL |  | MIC [18]: 8 µg/mL (≈ 4.47 µM)
8 | CNC(CC(C)C)C(=O)NC1C(=O)NC(CC(N)=O)C(=O)NC2C(=O)NC3C(=O)NC(C(=O)NC(C(=O)O)c4cc(O)cc(O)c4-c4cc3ccc4O)C(OC3CC(C)(N)C(O)C(C)O3)c3ccc(c(Cl)c3)Oc3cc2cc(c3OC2OC(CO)C(O)C(O)C2OC2CC(C)(NCc3ccc(S(=O)(=O)c4ccc(Cl)cc4)cc3)C(O)C(C)O2)Oc2ccc(cc2Cl)C1O (stereo not shown) [Compound 148] | 1 µg/mL (≈ 0.538 µM) | 0.5 µg/mL (≈ 0.269 µM) | ≤ 0.06 µg/mL | ≤ 0.06 µg/mL | 2 µg/mL (≈ 1.08 µM) | ≤ 0.06 µg/mL |  | ≤ 0.06 µg/mL | 2 µg/mL (≈ 1.08 µM) | 0.5 µg/mL (≈ 0.269 µM) | 1 µg/mL (≈ 0.538 µM) | 2 µg/mL (≈ 1.08 µM) | ≤ 0.06 µg/mL | 0.15 µg/mL | 0.052 µg/mL | ≤ 0.06 µg/mL | 1 µg/mL (≈ 0.538 µM) | 1 µg/mL (≈ 0.538 µM) | ≤ 0.06 µg/mL | 2 µg/mL (≈ 1.08 µM) | 
9 | CNC(CC(C)C)C(=O)NC1C(=O)NC(CC(N)=O)C(=O)NC2C(=O)NC3C(=O)NC(C(=O)NC(C(=O)O)c4cc(O)cc(O)c4-c4cc3ccc4O)C(OC3CC(C)(N)C(O)C(C)O3)c3ccc(c(Cl)c3)Oc3cc2cc(c3OC2OC(CO)C(O)C(O)C2OC2CC(C)(NCc3cc(C)cs3)C(O)C(C)O2)Oc2ccc(cc2Cl)C1O (stereo not shown) [Compound 66] | ≤ 0.06 µg/mL |  | ≤ 0.06 µg/mL | ≤ 0.06 µg/mL |  |  | 2 µg/mL (≈ 1.17 µM) | ≤ 0.06 µg/mL | 8 µg/mL (≈ 4.7 µM) | 1 µg/mL (≈ 0.587 µM) |  | 8 µg/mL (≈ 4.7 µM) | ≤ 0.06 µg/mL | 16 µg/mL | 0.76 µg/mL | ≤ 0.06 µg/mL |  | 1 µg/mL (≈ 0.587 µM) |  | ≤ 0.06 µg/mL | MIC [18]: 1 µg/mL (≈ 0.587 µM)
